Reference: the supplement of paper PMC10307832

How the values were obtained:
Assay in all cases: relative viability (nuclei count vs DMSO), 5 days (fraction); higher = more cells survive
[1] = compound: CC1=C(C(=O)N2C=CSC2=N1)CCN3CCC(=C(C4=CC=CC=C4)C5=CC=C(C=C5)F)CC3 + Nc1ncn([C@H]2C[C@H](O)[C@@H](CO)O2)c(=O)n1 [Decitabine] (partner 2 µM)
Outline: (§1)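 One day after seeding in 1536-well plates, lung cancer cell lines were dosed by pin tool. Dosing was either single-drug or a fixed anchor-drug dose plus five library-drug doses (not always all listed) in √10 steps. After 5 days, nuclei were stained in one fix-and-stain step and counted on 4× images, and relative viability is the nuclei count of treated wells over that of vehicle wells, given as the median of duplicate plates.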

[2] = compound: CC1=C(C(=O)N2C=CSC2=N1)CCN3CCC(=C(C4=CC=CC=C4)C5=CC=C(C=C5)F)CC3 + N=C(N)NC(=N)NCCc1ccccc1 [Phenformin] (partner 250 µM)
Outline: as §1

[3] = compound: CC1=C(C(=O)N2C=CSC2=N1)CCN3CCC(=C(C4=CC=CC=C4)C5=CC=C(C=C5)F)CC3 + CC(=O)c1c(C)c2cnc(Nc3ccc(N4CCNCC4)cn3)nc2n(C2CCCC2)c1=O [Palbociclib] (partner 0.5 µM)
Outline: as §1

[4] = compound: CC1=C(C(=O)N2C=CSC2=N1)CCN3CCC(=C(C4=CC=CC=C4)C5=CC=C(C=C5)F)CC3 + CS(=O)(=O)N1CCN(Cc2cc3nc(-c4cccc5[nH]ncc45)nc(N4CCOCC4)c3s2)CC1 [Pictilisib] (partner 1 µM)
Outline: as §1

Row | Cell Line | relative viability ([1]; first compound 0.08 µM) | relative viability ([1]; first compound 0.253 µM) | relative viability ([1]; first compound 0.8 µM) | relative viability ([1]; first compound 2.53 µM) | relative viability ([1]; first compound 8 µM) | relative viability ([2]; first compound 0.08 µM) | relative viability ([2]; first compound 0.253 µM) | relative viability ([2]; first compound 0.8 µM) | relative viability ([2]; first compound 2.53 µM) | relative viability ([2]; first compound 8 µM) | relative viability ([3]; first compound 0.08 µM) | relative viability ([3]; first compound 0.253 µM) | relative viability ([3]; first compound 0.8 µM) | relative viability ([3]; first compound 2.53 µM) | relative viability ([3]; first compound 8 µM) | relative viability ([4]; first compound 0.08 µM) | relative viability ([4]; first compound 0.253 µM) | relative viability ([4]; first compound 0.8 µM) | relative viability ([4]; first compound 2.53 µM) | relative viability ([4]; first compound 8 µM)
1 | HCC-366 | 0.389 | 0.318 | 0.324 | 0.394 | 0.243 | 0.638 | 0.65 | 0.626 | 0.579 | 0.472 | 0.392 | 0.394 | 0.458 | 0.337 | 0.277 | 0.128 | 0.152 | 0.194 | 0.129 | 0.121
2 | LCLC-103H | 0.685 | 0.702 | 0.69 | 0.826 | 0.646 | 0.327 | 0.331 | 0.316 | 0.308 | 0.289 | 0.523 | 0.495 | 0.491 | 0.504 | 0.453 | 0.884 | 0.636 | 0.449 | 0.618 | 0.566
3 | NCI-H358 | 0.211 | 0.235 | 0.244 | 0.256 | 0.202 | 0.344 | 0.361 | 0.361 | 0.379 | 0.243 | 0.138 | 0.136 | 0.145 | 0.162 | 0.128 | 0.301 | 0.338 | 0.326 | 0.38 | 0.305
4 | SK-MES-1 | 0.572 | 0.391 | 0.375 | 0.461 | 0.353 | 0.608 | 0.693 | 0.699 | 0.73 | 0.522 | 0.299 | 0.288 | 0.294 | 0.336 | 0.305 | 0.386 | 0.396 | 0.357 | 0.33 | 0.261
5 | NCI-H1915 | 0.305 | 0.277 | 0.265 | 0.253 | 0.257 | 0.376 | 0.377 | 0.365 | 0.363 | 0.317 | 0.559 | 0.542 | 0.496 | 0.498 | 0.397 | 1.21 | 1.01 | 0.969 | 1.04 | 0.835
6 | NCI-H1666 | 0.714 | 0.786 | 0.678 | 0.873 | 0.616 | 0.531 | 0.609 | 0.581 | 0.591 | 0.527 | 0.663 | 0.616 | 0.627 | 0.739 | 1.01 | 0.393 | 0.434 | 0.381 | 0.461 | 0.431
7 | LC-2-ad | 0.866 | 0.903 | 0.875 | 0.794 | 0.642 | 0.656 | 0.656 | 0.543 | 0.62 | 0.566 | 0.463 | 0.459 | 0.475 | 0.473 | 0.458 | 0.418 | 0.369 | 0.513 | 0.646 | 0.427
8 | HCC-44 | 1.03 | 1.09 | 0.995 | 1.02 | 0.985 | 0.172 | 0.15 | 0.148 | 0.217 | 0.202 | 0.956 | 0.997 | 1.02 | 1.01 | 0.86 | 0.532 | 0.643 | 0.587 | 0.573 | 0.581
9 | HCC-827 | 0.285 | 0.335 | 0.308 | 0.33 | 0.322 | 0.4 | 0.413 | 0.444 | 0.398 | 0.407 | 0.483 | 0.496 | 0.491 | 0.486 | 0.455 | 0.829 | 1.07 | 1.13 | 0.924 | 0.645
10 | NCI-H727 | 0.861 | 0.974 | 0.888 | 1.03 | 0.792 | 0.593 | 0.55 | 0.481 | 0.464 | 0.47 | 0.582 | 0.547 | 0.577 | 0.665 | 0.701 | 0.352 | 0.351 | 0.35 | 0.354 | 0.423
11 | NCI-H2087 | 0.245 | 0.236 | 0.255 | 0.286 | 0.191 | 0.333 | 0.434 | 0.529 | 0.585 | 0.323 | 0.279 | 0.237 | 0.236 | 0.227 | 0.238 | 0.769 | 0.868 | 0.835 | 0.997 | 0.554
12 | NCI-H650 | 0.342 | 0.363 | 0.339 | 0.319 | 0.274 | 0.404 | 0.521 | 0.421 | 0.497 | 0.404 | 0.322 | 0.348 | 0.322 | 0.32 | 0.334 | – | 0.763 | 0.786 | 0.99 | 0.71
13 | ABC-1 | 1.2 | – | 1.04 | 1.18 | 1.02 | 0.267 | 0.223 | 0.212 | 0.248 | 0.197 | 0.579 | – | 0.581 | 0.559 | 0.67 | 0.817 | 0.973 | 0.827 | 0.684 | 0.483
14 | A-427 | 0.452 | 0.654 | 0.546 | 0.592 | 0.595 | 0.291 | 0.287 | 0.283 | 0.301 | 0.266 | 0.533 | 0.565 | 0.499 | 0.541 | 0.531 | 0.801 | 0.86 | 0.676 | 0.83 | 0.737
15 | HCC-78 | 0.769 | 0.803 | 0.765 | 0.683 | 0.536 | 0.689 | 0.76 | 0.695 | 0.691 | 0.531 | 0.336 | 0.462 | 0.484 | 0.519 | 0.349 | 0.216 | 0.206 | 0.226 | 0.212 | 0.273
16 | SK-LU-1 | 0.593 | 0.555 | 0.709 | 0.615 | 0.535 | 0.672 | 0.475 | 0.585 | 0.576 | 0.42 | 0.378 | 0.375 | 0.406 | 0.416 | 0.36 | 0.538 | 0.587 | 0.655 | 0.573 | 0.494
17 | NCI-H441 | 0.263 | 0.255 | 0.242 | 0.247 | 0.239 | 0.797 | 0.759 | 0.918 | 0.737 | 0.667 | 0.219 | 0.196 | 0.2 | 0.208 | 0.234 | – | 0.519 | 0.464 | 0.563 | 0.366
18 | NCI-H1792 | 0.312 | 0.561 | 0.614 | 0.426 | 0.19 | – | 0.257 | 0.211 | 0.33 | 0.254 | 0.353 | 0.663 | 0.649 | 0.564 | 0.271 | 0.241 | 0.257 | 0.251 | 0.232 | 0.308
19 | NCI-H2023 | 0.257 | 0.248 | 0.217 | 0.24 | 0.156 | 0.441 | 0.312 | 0.426 | 0.389 | 0.251 | 0.386 | 0.316 | 0.427 | 0.389 | 0.299 | 0.257 | 0.239 | 0.238 | 0.263 | 0.28
20 | NCI-H23 | 0.355 | 0.308 | 0.332 | 0.323 | 0.119 | 0.757 | 0.668 | 0.782 | 0.773 | 0.564 | 0.542 | 0.492 | 0.463 | 0.568 | 0.403 | 0.473 | 0.39 | 0.443 | 0.497 | 0.374
21 | COR-L23 | 0.415 | 0.498 | 0.405 | 0.484 | 0.368 | 0.43 | 0.449 | 0.39 | 0.455 | 0.375 | 0.292 | 0.306 | 0.255 | 0.286 | 0.27 | 0.775 | 0.595 | 0.945 | 0.69 | 0.52
22 | NCI-H1993 | 0.635 | 0.644 | 0.6 | 0.64 | 0.576 | 0.505 | 0.411 | 0.51 | 0.568 | 0.536 | 0.583 | 0.619 | 0.592 | 0.705 | 0.614 | 0.755 | – | 0.766 | 0.727 | 0.73
23 | NCI-H661 | 0.528 | 0.623 | 0.55 | 0.528 | 0.387 | 0.242 | 0.268 | 0.277 | 0.297 | 0.291 | 0.402 | 0.393 | 0.391 | 0.417 | 0.429 | 0.404 | 0.382 | 0.338 | 0.352 | 0.361
24 | COR-L 105 | 0.59 | 0.629 | 0.71 | 0.719 | 0.509 | 0.484 | 0.467 | 0.402 | 0.499 | 0.387 | 0.439 | 0.419 | 0.383 | 0.406 | 0.383 | 0.349 | 0.392 | 0.376 | 0.436 | 0.403
25 | NCI-H2405 | 0.785 | – | 0.8 | 0.724 | 0.617 | 0.373 | 0.366 | 0.399 | 0.375 | 0.332 | 0.609 | – | 0.547 | 0.576 | 0.476 | 0.426 | 0.432 | 0.481 | 0.531 | 0.347
